This passage reports Inhibition, IC50 and inhibition results from ChEMBL document CHEMBL1145461 (J Med Chem, 2007).

The target of data set [1] is T1, Steroid 17-alpha-hydroxylase/17,20 lyase (Homo sapiens, UniProt P05093).
T1 sequence (P05093 whole entry): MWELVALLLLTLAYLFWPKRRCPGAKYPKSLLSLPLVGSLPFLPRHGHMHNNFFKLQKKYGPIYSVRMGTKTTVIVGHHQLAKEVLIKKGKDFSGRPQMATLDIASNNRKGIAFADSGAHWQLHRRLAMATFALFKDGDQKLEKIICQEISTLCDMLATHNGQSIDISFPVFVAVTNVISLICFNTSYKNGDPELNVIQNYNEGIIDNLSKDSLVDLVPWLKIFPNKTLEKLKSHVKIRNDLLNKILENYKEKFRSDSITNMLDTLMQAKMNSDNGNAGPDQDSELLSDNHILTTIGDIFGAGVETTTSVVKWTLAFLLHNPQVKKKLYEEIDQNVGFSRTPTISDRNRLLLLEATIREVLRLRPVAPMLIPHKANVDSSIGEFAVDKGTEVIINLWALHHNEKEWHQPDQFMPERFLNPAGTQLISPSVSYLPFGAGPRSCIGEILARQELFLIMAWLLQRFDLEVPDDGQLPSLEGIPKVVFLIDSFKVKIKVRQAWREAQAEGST
In words: (§1) Inhibition of human CYP17 expressed in Escherichia coli at 2.5 uM. Conditions: 2.5 µM; call rule not given here.

The target of a further data set is T2, Aromatase (Homo sapiens, UniProt P11511).
T2 sequence (P11511 whole entry): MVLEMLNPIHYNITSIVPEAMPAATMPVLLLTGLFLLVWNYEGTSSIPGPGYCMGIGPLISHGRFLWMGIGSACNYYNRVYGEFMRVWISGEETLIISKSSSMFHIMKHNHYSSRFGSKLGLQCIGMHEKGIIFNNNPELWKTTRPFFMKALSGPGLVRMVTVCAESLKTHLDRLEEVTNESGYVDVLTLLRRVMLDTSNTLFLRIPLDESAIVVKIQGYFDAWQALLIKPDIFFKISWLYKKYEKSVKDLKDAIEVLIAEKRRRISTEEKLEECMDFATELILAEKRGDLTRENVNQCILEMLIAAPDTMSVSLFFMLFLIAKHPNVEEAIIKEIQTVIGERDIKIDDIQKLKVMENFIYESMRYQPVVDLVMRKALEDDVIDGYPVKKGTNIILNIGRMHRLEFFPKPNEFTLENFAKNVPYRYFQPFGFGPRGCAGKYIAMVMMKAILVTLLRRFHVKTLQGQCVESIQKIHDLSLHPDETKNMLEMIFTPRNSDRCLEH
In words: Inhibition of CYP19 in human placental microsomes. On the set-up: species or system Placenta.

Data set [2] deals with T3, CYP17 (steroid 17-alpha-hydroxylase/17,20 lyase) (Homo sapiens, UniProt P05093).
T3 sequence (P05093 whole entry): T1 sequence (P05093 whole entry)
The data set is described as §1. Conditions: recombinant human CYP17 expressed in Escherichia coli.

Turning to `O=C(c1ccccc1)c1ccc(Cn2ccnc2)cc1`, the Inhibition result in data set [1] is reported as “Not Active”.

As for `O=C(c1ccccc1)c1cc(Br)ccc1Cn1ccnc1`, on Aromatase, 400 nM corresponded to half-maximal inhibition (IC50). The inhibition (usually the share of the control response that was lost under treatment) at 2.5 µM in data set [2] worked out at 15%.

For `O=C(c1ccccc1)c1cc([N+](=O)[O-])ccc1Cn1ccnc1`, half-maximal inhibition at Aromatase (IC50) required 25.9 nM. In addition, the Inhibition result in data set [1] was “Not Active”.

Turning to `O=C(c1ccc(-c2ccccc2)cc1)c1cc([N+](=O)[O-])ccc1Cn1ccnc1`, the IC50 (usually the concentration that inhibits the measured activity by half) against Aromatase stood at 17.7 nM. The inhibition at 2.5 µM in data set [2] was determined as 17%.

For `O=C(c1ccc(-c2ccccc2)cc1)c1ccccc1Cn1ccnc1`, the IC50 against Aromatase stood at 260 nM. For the same molecule, in data set [2], the inhibition at 2.5 µM is 24%.

In turn, `O=C(c1ccc(-c2ccccc2)cc1)c1cccc(Cn2ccnc2)c1` registered a concentration for half-maximal inhibition (IC50) at Aromatase of 5.3 nM. Further, the Inhibition result in data set [1] was “Not Active”.

With `O=C(c1ccccc1)c1ccccc1Cn1ccnc1`, at Aromatase, the 50% inhibitory concentration (IC50) was 560 nM. The Inhibition entry in data set [1] is on record as “Not Active”.

Take `O=C(c1ccccc1)c1cc(Cn2ccnc2)ccc1[N+](=O)[O-]`: on Aromatase, 31 nM corresponded to half-maximal inhibition (IC50). Besides, the Inhibition result in data set [1] is “Not Active”.

Turning to `O=C(c1ccccc1)c1cccc(Cn2ccnc2)c1`, the IC50 against Aromatase is 7.3 nM. Further, in data set [1], the Inhibition result is “Not Active”.

As for `N#Cc1ccc(C2CCCc3cncn32)cc1` (stereo not drawn) [FADROZOLE], the Inhibition entry in data set [1] is on record as “Not Active”.
